Earlier results on 30 compounds are cited in the PKSmart pharmacokinetics tables (Seal et al. 2025).

Usually MRT stands for a mean duration of stay, worked out from the concentration-time curve. One may read the Vd as a proportionality between amount in the body and measured concentration, not a real space. By clearance is commonly meant the rate of elimination divided by the concentration. The term half-life denotes the time needed for the level to fall by half in the phase considered. In general, fraction unbound refers to the share of the substance not bound to proteins or other matrix.

Each structure is given as a SMILES string.

A short description of this series: Lombardo, Berellini, Obach 2018, Drug Metab Dispos 46:1466, doi 10.1124/dmd.118.082966. The following applies: human; for MRT / Vd / clearance / half-life: in vivo, iv; for fraction unbound: plasma.

Regarding `C[C@@H]1C[C@H]2[C@H]3CC=C4CC(=O)C=C[C@]4(C)[C@@]3(Cl)[C@@H](O)C[C@]2(C)[C@@]1(OC(=O)c1ccco1)C(=O)CCl`, the mean residence time (MRT) is 2.9 h, the Vd was 2.2 L/kg, the clearance was 0.762 L/h/kg and the half-life is 4.4 h.
`C[N+]1(C)CCC(OC(=O)C(O)(c2ccccc2)C2CCCC2)C1` (stereo unspecified): the MRT is 0.37 h.
With `C[C@@H](Oc1cc(-n2cnc3ccc(CN4CCN(C)CC4)cc32)sc1C(N)=O)c1ccccc1C(F)(F)F`, the MRT was 10 h, the Vd is 12 L/kg, the clearance was 1.2 L/h/kg and the half-life was 10.3 h.
As for `Oc1c(C2=CC[C@@H](c3ccc(Cl)cc3)CC2)c(O)c2ccccc2c1O`, the MRT was 67 h, the Vd was 0.6 L/kg, the clearance was 0.009 L/h/kg and the half-life was 63 h. For the same compound, the fraction unbound was 0.001.
Take `Cc1c[nH]c2c(O)cc3c(c12)[C@H](CCl)CN3C(=O)c1cc2cc(NC(=O)Nc3ccc4[nH]c(C(=O)N5C[C@@H](CCl)c6c5cc(O)c5[nH]cc(C)c65)cc4c3)ccc2[nH]1`: the MRT was 1.7 h, the Vd is 0.05 L/kg, the clearance is 0.03 L/h/kg and the half-life is 1.6 h.
`CC(c1nc(-c2ccc(C#N)cc2)cs1)[C@@](O)(Cn1cncn1)c1cc(F)ccc1F` (stereo partly specified): the MRT was 106 h, the Vd is 5.37 L/kg, the clearance was 0.051 L/h/kg and the half-life was 86.9 h. For the same compound, the fraction unbound was 0.01.
Consider `C[C@]12CC=C3C4=C(CCC3[C@@H]1CC[C@@]2(O)CC#N)CC(=O)CC4` (stereo partly specified), for which the MRT was 8.52 h, the Vd is 0.6 L/kg, the clearance was 0.0774 L/h/kg and the half-life was 11 h. Besides, the fraction unbound was 0.1.
On to `C[N+](C)(C)NCCC(=O)[O-]`, for which the MRT is 4.3 h, the Vd was 0.7 L/kg, the clearance is 0.168 L/h/kg and the half-life is 6.2 h.
Consider `CNC(=O)N(N(CCCl)S(C)(=O)=O)S(C)(=O)=O`, for which the MRT is 0.63 h, the Vd is 0.88 L/kg, the clearance is 1.39 L/h/kg and the half-life was 0.49 h.
For `COc1ccc(CC(NC(=O)CC(C)(C)N)C(=O)NC(Cc2c[nH]cn2)C(=O)N[C@@H](CC2CCCCC2)[C@@H](O)[C@@H](O)CC(C)C)cc1` (stereo partly specified), the mean residence time MRT was 3.1 h, the Vd is 0.11 L/kg, the clearance is 0.027 L/h/kg and the half-life was 1.72 h. Further, the fraction unbound was 0.07.
Consider `C[C@@H](OC[C@@]1(c2ccccc2)CC[C@]2(CCC(=O)N2)CN1)c1cc(C(F)(F)F)cc(C(F)(F)F)c1`, for which the clearance was 0.0228 L/h/kg, the half-life was 148 h and the fraction unbound was 0.002.
Take `C=C[C@@H]1C[C@]1(NC(=O)C1C[C@@H](Oc2ncc(OC)c3ccc(Cl)cc23)CN1C(=O)C(NC(=O)OC(C)(C)C)C(C)(C)C)C(=O)NS(=O)(=O)C1CC1` (stereo partly specified): the MRT is 3.92 h, the Vd is 2.77 L/kg, the clearance is 0.707 L/h/kg and the half-life is 20 h. In addition, the fraction unbound was 0.012.
Regarding `CSCC(NC(=O)COc1cccc2cnccc12)C(=O)NC(Cc1ccccc1)C(O)C(=O)N1CSCC1C(=O)NC(C)(C)C` (stereo unspecified), the MRT was 0.17 h, the volume of distribution (Vd) is 0.11 L/kg, the clearance was 0.63 L/h/kg and the half-life was 0.44 h.
Take `CCCCc1nc(C)c(CC(=S)N(C)C)c(=O)n1Cc1ccc(-c2ccccc2-c2nnn[nH]2)cc1`: the mean residence time MRT was 1.1 h, the Vd was 0.6 L/kg, the clearance is 0.576 L/h/kg and the half-life was 5.5 h.
As to `CCOC(=O)C1=C[C@]2(CC)CCCN3CCc4c(n1c1ccccc41)[C@@H]32`, the MRT is 5.68 h, the Vd was 2.08 L/kg, the clearance was 0.366 L/h/kg and the half-life was 4.83 h. The fraction unbound was 0.02.
As to `COc1cc([C@@H]2c3cc4c(cc3[C@@H](O[C@@H]3O[C@@H]5CO[C@@H](c6cccs6)O[C@H]5[C@H](O)[C@H]3O)[C@H]3COC(=O)C23)OCO4)cc(OC)c1O` (stereo partly specified), the MRT was 37 h, the Vd is 0.41 L/kg, the clearance is 0.0114 L/h/kg and the half-life is 16 h. Also, the fraction unbound is 0.0044.
As for `CN1CCN2c3ccccc3Cc3ccccc3[C@H]2C1`, the MRT was 10.5 h, the Vd was 13.8 L/kg, the clearance was 1.31 L/h/kg and the half-life is 9.6 h. Also, the fraction unbound was 0.05.
With `COc1cc(F)ccc1Cn1ccc2c3c(ncc21)C(=O)N(O)CC3`, the MRT is 3.95 h, the Vd was 5.7 L/kg, the clearance is 1.44 L/h/kg and the half-life is 3.8 h. Moreover, the fraction unbound is 0.08.
With `CCN(C)C(=O)Oc1cccc([C@H](C)N(C)C)c1`, the MRT was 1.9 h, the volume of distribution (Vd) is 1.3 L/kg, the clearance was 0.72 L/h/kg and the half-life is 1.4 h. The fraction unbound was 0.6.
Turning to `Nc1nc(=O)n([C@H]2C[C@H](O)[C@@H](CO)O2)cc1F`, the MRT was 2.98 h, the Vd was 0.91 L/kg, the clearance was 0.305 L/h/kg and the half-life is 0.78 h.
For `C=C[C@]1(C)C[C@@H](OC(=O)CS[C@@H]2CC[C@@H](N)C[C@H]2O)[C@]2(C)[C@H](C)CC[C@]3(CCC(=O)[C@H]32)[C@@H](C)[C@@H]1O`, the MRT is 5.53 h, the Vd is 1.32 L/kg, the clearance was 0.238 L/h/kg and the half-life is 6.4 h. The fraction unbound was 0.17.
Turning to `CSCCC(N)C(=O)NC(CCC(=O)O)C(=O)NC(Cc1cnc[nH]1)C(=O)NC(Cc1ccccc1)C(=O)NC(CCCN=C(N)N)C(=O)NC(Cc1c[nH]c2ccccc12)C(=O)NCC(=O)O` (stereo unspecified), the MRT is 0.01 h, the Vd was 0.73 L/kg, the clearance is 52.3 L/h/kg and the half-life is 0.06 h.
With `O=c1[nH]cnc2c1ncn2[C@H]1CC[C@@H](CO)O1`, the MRT was 1.2 h, the clearance was 0.66 L/h/kg and the half-life was 1.4 h.
In the case of `CCN(CC)CC#CCOC(=O)C(O)(c1ccccc1)C1CCCCC1` (stereo unspecified), the MRT was 2.7 h, the Vd was 0.85 L/kg, the clearance was 0.306 L/h/kg and the half-life was 7.2 h. Also, the fraction unbound is 0.0034.
For `N/N=c1\[nH]ncc2ccccc12`, the MRT is 0.29 h, the Vd was 1.5 L/kg, the clearance is 5.1 L/h/kg and the half-life is 1 h. Further, the fraction unbound is 0.12.
In the case of `N=C(N)NC(CS)C(=O)O` (stereo unspecified), the MRT is 1.39 h, the Vd is 0.25 L/kg, the clearance was 0.173 L/h/kg and the half-life was 1.34 h.
Take `C[C@@H]1[C@H](O)[C@@H](C)C=CC=CC=CC=CC=CC=CC=C[C@H](O[C@H]2O[C@H](C)[C@@H](O)[C@H](N)[C@@H]2O)C[C@@H]2O[C@@](O)(C[C@@H](O)C[C@@H](O)[C@H](O)CC[C@@H](O)C[C@@H](O)CC(=O)O[C@H]1C)C[C@H](O)C2C(=O)O` (stereo partly specified): the MRT was 61 h, the Vd was 0.62 L/kg, the clearance was 0.0102 L/h/kg and the half-life was 40 h. Also, the fraction unbound is 0.03.
Take `CS(=O)(=O)c1ccc([C@@H](O)[C@@H](COC(=O)CN)NC(=O)C(Cl)Cl)cc1`: the MRT was 0.23 h, the distribution volume (Vd) was 0.13 L/kg, the clearance is 0.576 L/h/kg and the half-life is 0.28 h. For the same compound, the fraction unbound was 0.27.
In the case of `COc1c(N2C[C@@H](C)C[C@H](N)C2)ccc2c(=O)c(C(=O)O)cn(C3CC3)c12`, the MRT was 8.4 h, the Vd is 1.9 L/kg, the clearance was 0.228 L/h/kg and the half-life was 13.5 h.
Regarding `Cc1c(C)c2ccc(OCCCN3CCN(Cc4ccc(Cl)cc4)CC3)cc2oc1=O`, the MRT is 16.5 h, the distribution volume (Vd) is 1.3 L/kg, the clearance was 0.078 L/h/kg and the half-life is 19.2 h. The fraction unbound was 0.05.
